Source: a compilation of properties of binary mixtures (doi:10.1039/b315616h)

Assay: xn = mol fraction of the nth substance listed
Conditions: 101.3 kPa, x2 = 0.865

CCCCCC[n+]1ccn(C)c1.F[B-](F)(F)F + CCCCCO
Conditions	viscosity [mPa·s]
314.94 K	5.47
315.04 K	5.22
315.1 K	5.14
315.15 K	5.09
315.2 K	5.04
315.24 K	5
315.3 K	4.96
315.44 K	4.87
315.54 K	4.83
315.58 K	4.8
315.71 K	4.76
315.75 K	4.74
315.88 K	4.7
315.91 K	4.69
315.94 K	4.68
315.98 K	4.67
316.07 K	4.64
316.22 K	4.6
316.42 K	4.54
316.73 K	4.46
317.23 K	4.35
319.34 K	3.98
321.14 K	3.74
323.16 K	3.51
325.69 K	3.262
328.15 K	3.047
